Measurements from paper PMC6514996, “Discovery of Potent and Selective Halogen-Substituted Imidazole-Thiosemicarbazides for Inhibition of Toxoplasma gondii Growth In Vitro via Structure-Based Design” (Molecules, 2019).
Values after ≈ are worked out from the molar mass of the structure shown.

Tests used:
[1] = Cytotoxicity against L929 cells, MTT cell viability assay (ISO 10993-5:2009(E)); type: cell-based; conditions: mouse, L929 mouse fibroblast cells; for viability at 24 h, 5 µg/mL / viability at 24 h, 25 µg/mL / viability at 24 h, 50 µg/mL / viability at 24 h, 125 µg/mL / viability at 24 h, 250 µg/mL / viability at 24 h, 500 µg/mL / viability at 24 h, 1000 µg/mL: read-out: viability of L929 cells (% of viable cells); for CC50 at 24 h: 50% cell proliferation inhibition, L929 cells
Description: Since T. gondii is an obligate intracellular parasite that requires invasion of mammalian host cells to proliferate, compounds that inhibit parasite growth might be toxic to host cells as well. Therefore, as an initial indicator for host cell toxicity, we firstly evaluated compounds 5–16 for their ability to inhibit the growth of mouse fibroblast (L929) cells line according to the international standards: ISO 10993-5:2009(E).
To calculate the reduction of viability compared to the untreated blank the equation was used: viability (%) = 100% × sample OD570 (the mean value of the measured optical density of the treated cells)/blank OD570 (the mean value of the measured optical density of the untreated cells). CC50—represents the concentration of tested compounds that was required for a 50% cell proliferation inhibition in vitro. The effect of the tested compounds on the cell lines was measured using MTT assay according to the international standard: ISO 10993-5:2009(E). CC50 values were determined based on the plotted curves using GraphPad Prism program (version 8.0.1).
Cell culture: the L929 mouse fibroblast (ATTC® CCL-1™) was routinely cultured in IMDM (Iscove’s Modified Dulbecco Medium, Biowest, Nuaille, France), supplemented with 10% HIFBS, 100 U/mL penicillin and 100 μg/mL streptomycin. Cells were trypsinized twice a week and seeded at a density of 1 × 10^6 per T25 cell culture flask and incubated for 24–48 h in a 37 °C and 10% CO2 to achieve a confluent monolayer.
Cell viability assay: Assays were performed according to international standards: ISO 10993-5:2009(E), Biological evaluation of medical devices, Part 5: Tests for in vitro cytotoxicity. Cell viability were evaluated using the tetrazolium salt [3-(4,5-dimethylthiazol-2-yl)-2,5-diphenyltetrazolium bromide] (Sigma) and mouse fibroblasts L929 cells. For this assay we used only the culture medium, RPMI 1640, without phenol red (Biowest) supplemented with 10% HIFBS, 2 mM L-glutamine (Sigma), 100 U/mL penicillin, 100 μg/mL streptomycin. Shortly after, a 1 × 10^4/well of L929 cells were placed into 96-well plates and incubated in 37 °C and 10% CO2. Afterwards, an old culture medium was replaced by 100 μL of compounds and drugs dilutions in culture medium and the cells were treated for 24 h. Moreover, cells were treated with a 4.0–0.03% concentration of DMSO and 1M NaOH as a compound and drugs solvent (data not shown). Then, 50 μL of 1 mg/mL of MTT solution in RPMI 1640 without phenol red was added to each well and incubated 2h (37 °C, 10% CO2). Next, cell culture medium was aspirated cautiously and 150 μL of DMSO was added to each well, the plates were gently mixed. Then 25 μL 0.1M glycine buffer (pH = 10.5) (Sigma) was added. The optical density at 570 nm on the ELISA reader (Multiskan EX, Labsystems, Vienna, VA, USA), was read. The results were expressed as a percentage of viability compared to untreated cells. All experiments were performed in triplicate. For comparison reasons, two compounds known from our previous studies (6 and 9) were included in the bioassay performed for compounds 5, 7, 8, 9–16.

[2] = system: Toxoplasma gondii RH strain tachyzoites (ATCC PRA 310); test: Influence on T. gondii proliferation in Hs27 cells, [3H]-uracil incorporation assay; type: cell-based; conditions: for IC50: Toxoplasma gondii, HS27, 50% inhibition of T. gondii RH proliferation in vitro, Hs27 host cells, [3H]-uracil incorporation; for SR (selectivity ratio): ratio of CC50 (L929) to IC50 (T. gondii)
[3] = Lipophilicity by HPLC (logkw extrapolation, OECD guideline); type: physicochemical; conditions: Phenomenex Synergi 4 µm Polar-RP column, methanol:water, calibration with seven standards
Experimental: HPLC experiments were performed using a chromatograph equipped with an Elite LaChrom L-2130 gradient pump, L-2455 DAD detector, L-2300 column oven, and L-2200 autosampler (Hitachi-Merck, Darmstadt, Germany). The tested samples were applied into the Phenomenex Synergi 4 µm Polar-RP chromatographic column (Phenomenex, Torrance, CA, USA) (150 mm length, 4.6 mm i.d.). Mobile phases were degassed using a built-in membrane degasser.
Chromatographic analysis: 5 µL of each sample (0.1% methanolic solutions) was applied into the chromatographic column and chromatograms were developed at a flow rate of 1.0 mL min^−1 in the isocratic mode using various concentrations of methanol in the binary polar mobile phase: methanol:water (40:60, 45:55, 50:50, 55:45, 60:40, 65:35, and 70:30 (v/v)) Chromatograms were detected at 254 nm. All experiments were repeated in triplicate, and the final results were their arithmetic mean. Dead time was measured for uracil (Calbiochem—Merck, Darmstadt, Germany). All the experiments were performed at ambient temperature.
The chromatographic lipophilicity parameter (logkw) for 5–16 was obtained by the extrapolation of the retention parameter logk to pure water, according to the equation: logk = logkw − S × φ(1) where logkw is the value of the retention factor of a substance in pure water, S is the slope of the regression curve, and φ is the concentration (v/v) of methanol in the mobile phase.
Subsequently, logPHPLC parameters for 5–16 were calculated according to OECD guidelines, based on the equation obtained for seven standards with known lipohilicity parameters (logPo/w): logPo/w = 1.0239(± 0.03)·logkw − 0.1541(± 0.08); n = 7; r = 0.9976; se = 0.08; F = 1047.8(2)

| Compound | viability at 24 h, 5 µg/mL [1] [%] | viability at 24 h, 25 µg/mL [1] [%] | viability at 24 h, 50 µg/mL [1] [%] | viability at 24 h, 125 µg/mL [1] [%] | viability at 24 h, 250 µg/mL [1] [%] | viability at 24 h, 500 µg/mL [1] [%] | viability at 24 h, 1000 µg/mL [1] [%] | CC50 at 24 h [1] [µg/mL] | IC50 [2] [µg/mL] | SR (selectivity ratio) [2] | melting point [°C] | chromatographic logP [3] |
| --- | --- | --- | --- | --- | --- | --- | --- | --- | --- | --- | --- | --- |
| Cc1nc[nH]c1C(=O)NNC(=S)Nc1ccccc1Br [Compound 11, 4-(2-Bromophenyl)-1-(4-methylimidazol-5-oyl)thiosemicarbazide] | 94.7 | 93 | 87.5 | 76.3 | 70 | 47.1 | 29.8 | 495 (≈ 1400 µM) | 27.6 (≈ 78.1 µM) | 17.91 | 205 to 207 | 3.23 |
| Cc1nc[nH]c1C(=O)NNC(=S)Nc1cccc(I)c1 [Compound 15, 4-(3-Iodophenyl)-1-(4-methylimidazol-5-oyl)thiosemicarbazide] | 96.7 | 87.3 | 70.8 | 66.2 | 54 | 8.53 | 8.49 | 197 (≈ 492 µM) | 10.3 (≈ 25.7 µM) | 19.16 | 210 to 212 | 3.98 |
| Cc1nc[nH]c1C(=O)NNC(=S)Nc1ccc(I)cc1 [Compound 16, 4-(4-Iodophenyl)-1-(4-methylimidazol-5-oyl)thiosemicarbazide] | 96.7 | 84.4 | 66.2 | 68.1 | 49.9 | 16.3 | 13.5 | 195 (≈ 486 µM) | 22 (≈ 54.9 µM) | 8.86 | 225 to 227 | 3.95 |
